Assay results reported in patent publication US5262421A, “Use of dicentrine and its derivatives for the treatment of hypertension, arrhythmia, thrombosis and atherosclerosis” (National Science Council, priority 1991, dated 1993).
Entries after “also recorded” stand apart in the source; their conditions may differ.

Key:
washed rabbit platelets = assay: Aggregation of washed rabbit platelets induced by arachidonic acid, collagen, thrombin, ADP or PAF; format: cell-based; conditions: for Aggregation (%): dicentrine 150 μM
Text: These fractions inhibited the aggregation of washed rabbit platelets induced by ADP, collagen, arachidonic acid and platelet-activating factor (PAF). […] Furthermore, the action potential of rat ventricular cells was prolonged by these fractions. After rechromatography on a silica gel column with n-hexane-ethylacetate (2:1), four potent compounds, dicentrine, N-methylnandigerine, N-methylovigenine and dicentrinone were obtained.
500 g of dried, ground root material Lindera oldhamu (megaphylla) Hemsl was extracted with 95% ethanol, and the extract was concentrated in vacuo and fractionated into ethanol- and ethylacetate-soluble fractions. The ethylacetate-soluble fraction was then applied to a column of silica gel and eight fractions were obtained.
(§1) Means ± S.E.M. are presented. *: P < 0.05, **: P < 0.01, ***: P < 0.00
(§2) as compared with the respective control. Concentration: arachidonic acid
(100 μM), collagen (10 μg/ml), norepinephrine (NE, 3 μM), each
(§3) At 6 min after the addition of inducer, indomethacin (50 μM) and EDTA (2 mM) were added to stop the reaction, and thromboxane B2 was assayed by RIA kits.
(§4) (100 μM), collagen (10 ug/ml), thrombin (0.1 U/ml), dicentrine (150

rat thoracic aortae = assay: Norepinephrine-induced contraction of rat thoracic aortae (phasic and tonic); conditions: in words
[1] = system: Thromboxane B2 formation in washed rabbit platelets; assay: Thromboxane B2 formation in washed rabbit platelets (RIA); format: cell-based; conditions: for Thromboxane B2: dicentrine 150 μM
Method: as §3, §1, §2, §4

rat ventricular cells = assay: Action potential of rat ventricular cells; format: cell-based; conditions: for Tp (time to peak) / APD50 (action potential duration at 50% repolarization) / AP amplitude (initial upstroke amplitude): 3 μM; for Tp (time to peak): control 5.0 ± 0.5 (dicentrine), 5.3 ± 0.5 (quinidine); for APD50 (action potential duration at 50% repolarization): control 59.9 ± 11.3 (dicentrine), 62.6 ± 3.9 (quinidine); for AP amplitude (initial upstroke amplitude): control 138.3 ± 2.6 (dicentrine), 135.2 ± 2.2 (quinidine)
Text: (§5) In rat ventricular cells, the effects of dicentrine on action potential and membrane current were studied. […] However, calcium current was less affected.
The effects of dicentrine and quinidine on action potential were compared and studied in rat ventricular cells. […] In addition to the prolongation of APD50, a depression of initial upstroke amplitude from 138.3±2.6 mV to 125.5±4.5 mV and prolongation of the time to peak amplitude from 5.0±0.5 msec to 10.0±1.9 msec were observed.
Means ± S.E.M. are presented. *: P < 0.05 as compared with the
APD50 : action potential duration measured at 50% repolarization fro
Tp : time to peak measured from the start of depolarization to the
Concentration: dicentrine (3 μM), quinidine (3 μM).

[2] = system: membrane currents of rat ventricular cells; assay: Voltage clamp, membrane currents in rat ventricular cells; format: cell-based
Text: as §5

anesthetized rats = assay: Systemic hemodynamic parameters of pentobarbital-anesthetized rats; format: in vivo, rat; conditions: for Blood flow: before 7 ± 4; for total peripheral resistance: dicentrine 1.0 mg/kg, prazosin 0.1 mg/kg
[3] = system: conscious spontaneously hypertensive (SH) and normotensive (NT) rats; assay: Mean arterial pressure in conscious spontaneously hypertensive (SH) and normotensive (NT) rats; format: in vivo, rat
[4] = system: rats fed with high cholesterol and high fat diet; assay: Blood cholesterol and triglyceride in rats fed high cholesterol and high fat diet; format: in vivo, rat; conditions: for Cholesterol / Triglyceride: high cholesterol & fat diet, dicentrine 10 mg/kg or prazosin 5 mg/kg, oral twice a day in last week; for Cholesterol: diet control 120 ± 7.1, normal diet 62 ± 4.5; for Triglyceride: diet control 305 ± 11.1, normal diet 84 ± 5.4
[5] = system: isolated thoracic aorta of rats fed with high cholesterol and high fat diet; assay: Contractile force of isolated thoracic aorta from rats fed high cholesterol and high fat diet; format: in vivo, rat; conditions: for contractile force: high cholesterol & fat diet, dicentrine 10 mg/kg, prazosin 5 mg/kg
rat thoracic aorta = assay: Aortic contraction induced by other agonists; conditions: in words
guinea-pig trachea = assay: Contraction and relaxation of guinea-pig trachea; conditions: in words
[6] = system: α1-adrenoceptor (rat thoracic aortae); assay: Schild analysis of α1-adrenoceptor antagonism: norepinephrine- and phenylephrine-induced contraction of rat thoracic aortae
Text: Results are given as means ± S.E.M. or the mean with 95% confidence

[7] = pentobarbital-anesthetized rats, in words
[8] = oral twice a day (10 mg/kg) in the last week, in words

## COc1cc2c(cc1OC)-c1c3c(cc4c1[C@H](C2)N(C)CC4)OCO3 [dicentrine]
Washed rabbit platelets; induced by arachidonic acid and collagen, in words
  aggregation of washed rabbit platelets: inhibited
Washed rabbit platelets; inducer arachidonic acid 100 μM, control 92 ± 1
  Aggregation (%): 11 ± 7%
Washed rabbit platelets; inducer collagen 10 ug/ml, control 94 ± 1
  Aggregation (%): 51 ± 7%
Washed rabbit platelets; inducer thrombin 0.1 U/ml, control 95 ± 2
  Aggregation (%): 92 ± 2%
Rat thoracic aortae
  vasorelaxant activity in rat thoracic aorta: most potent vasorelaxant
[1]; caused by arachidonic acid, collagen and thrombin, in words
  Thromboxane formations: all suppressed
[1]; inducer arachidonic acid 100 μM, control 445 ± 44
  Thromboxane B2: 19 ± 15 ng/10^8 platelets
[1]; inducer collagen 10 ug/ml, control 478 ± 93
  Thromboxane B2: 70 ± 5 ng/10^8 platelets
[1]; inducer thrombin 0.1 U/ml, control 131 ± 25
  Thromboxane B2: 44 ± 14 ng/10^8 platelets
Rat ventricular cells
  Tp (time to peak): 10.0 ± 1.9 ms
  APD50 (action potential duration at 50% repolarization): 201.9 ± 28.7 ms
  AP amplitude (initial upstroke amplitude): 125.5±4.5 mV
Rat ventricular cells; listed as Dicentrine
  Tp (time to peak): 10.0 ± 1.9 ms
  APD50 (action potential duration at 50% repolarization): 201.9 ± 28.7 ms
  AP amplitude (initial upstroke amplitude): 125.5 ± 4.5 mV
Rat ventricular cells; stimulation frequency 0.1 Hz
  action potential: prolonged
  initial upstroke amplitude: reduced
  time to peak: increased
[2]
  calcium current: less affected
  fast sodium inward current: inhibition
  steady state outward current: significant inhibition
  transient outward current: significant inhibition
Anesthetized rats; after dicentrine 1.0 mg/kg
  Blood flow: 200 ± 27
Anesthetized rats; after dicentrine 1.0 mg/kg, before 21 ± 2
  CO: 25 ± 4 mL/min
Anesthetized rats; after dicentrine 1.0 mg/kg, before 122 ± 5
  MAP: 62 ± 5 mm Hg
Anesthetized rats; after dicentrine 1.0 mg/kg, before 353 ± 10
  HR: 348 ± 8 bpm
Anesthetized rats; after α1-adrenoceptor blockade
  hypotensive activity after α1-adrenoceptor blockade: completely abolished
Anesthetized rats; anesthetized rats, i.v. bolus 0.1-1.0 mg/kg
  mean arterial blood pressure: dose-related reduction
Anesthetized rats; anesthetized rats, i.v. bolus 0.1-1.0 mg/kg, throughout observation period
  duration of reduction in mean arterial blood pressure: ≥ 2 h
Anesthetized rats
  total peripheral resistance: reduction
Anesthetized rats; [7]
  cardiac output (CO): little or no change
  heart rate (HR), or stroke volume (SV): no change
  mean arterial pressure (MAP): decrease
[3]; conscious SH and NT rats
  mean arterial pressure: dose-related decreases in mean arterial pressure which were of a greater magnitude in SH rats than in NT rats
[3]; oral administration, conscious SH rats
  duration of hypotensive effect: over 15 hr
[4]; cholesterol-triglyceride-rich diet, in words
  serum triglyceride level: decreased
[4]
  Cholesterol: 112 ± 4.6 mg/dL
  Triglyceride: 108 ± 4.3 mg/dL
[4]; [8]
  blood cholesterol level: unchanged
  triglyceride level: restored to normal levels
[5]; cholesterol-triglyceride-treated rats, in words
  contractile force of aorta: restored the contractile force of cholesterol-triglyceride-treated rat aortae back to normal values
[5]; [8]
  maximal contractile force of isolated thoracic aorta: restored to normal range
[5]; phenylephrine 3 × 10^-6 M
  contractile force: 0.75 ± 0.12 g
[5]; phenylephrine 3 × 10^-7 M
  contractile force: 0.55 ± 0.07 g
[5]; phenylephrine 3 × 10^-8 M
  contractile force: 0.22 ± 0.05 g
[5]; phenylephrine 10^-6 M
  contractile force: 0.67 ± 0.11 g
[5]; phenylephrine 10^-7 M
  contractile force: 0.55 ± 0.07 g
Rat thoracic aorta
  aortic contraction induced by U-46619, angiotensin II, high potassium or carbachol: did not affect
guinea-pig trachea
  contraction of guinea-pig trachea caused by histamine or carbachol: slightly inhibited
  β-adrenoceptor relaxation to isoprenaline in trachea: not affected
[6]; comparison with prazosin, yohimbine and phentolamine
  α1-adrenoceptor antagonism, relative potency: less potent than prazosin; also recorded: much more potent than phentolamine or yohimbine
[6]; denuded aortae
  effects in denuded aortae: still persisted
[6]; in words
  norepinephrine- or phenylephrine-induced vasoconstriction of rat aortae: competitive antagonism

## COc1cc2nc(N3CCN(C(=O)c4ccco4)CC3)nc(N)c2cc1OC [prazosin, reference compound]
Anesthetized rats; after prazosin 0.1 mg/kg
  Blood flow: 171 ± 14
Anesthetized rats; after prazosin 0.1 mg/kg, before 27 ± 3
  CO: 32 ± 3 mL/min
Anesthetized rats; after prazosin 0.1 mg/kg, before 120 ± 4
  MAP: 68 ± 6 mm Hg
Anesthetized rats; after prazosin 0.1 mg/kg, before 367 ± 9
  HR: 337 ± 10 bpm
Anesthetized rats
  total peripheral resistance: reduction
Anesthetized rats; [7]
  cardiac output (CO): little or no change
  mean arterial pressure (MAP): decrease
[4]
  Cholesterol: 112 ± 3.9 mg/dL
  Triglyceride: 114 ± 9.2 mg/dL
[5]; phenylephrine 3 × 10^-6 M
  contractile force: 0.87 ± 0.12 g
[5]; phenylephrine 3 × 10^-7 M
  contractile force: 0.70 ± 0.09 g
[5]; phenylephrine 3 × 10^-8 M
  contractile force: 0.30 ± 0.05 g
[5]; phenylephrine 10^-6 M
  contractile force: 0.80 ± 0.12 g
[5]; phenylephrine 10^-7 M
  contractile force: 0.51 ± 0.08 g

## C=C[C@H]1C[N@@]2CC[C@H]1C[C@@H]2[C@@H](O)c1ccnc2ccc(OC)cc12 [quinidine, reference compound]
Rat ventricular cells
  Tp (time to peak): 10.8 ± 2.4 ms
  APD50 (action potential duration at 50% repolarization): 276.0 ± 18.6 ms
  AP amplitude (initial upstroke amplitude): 121.2 ± 2.3 mV
